Source: patent US9540647B2, “Methods and compositions for the treatment of cancer” (University of South Alabama, priority 2010, dated 2017)
“Also recorded” adds a separate entry of the source.

Key:
OPN = assay: Secreted OPN in conditioned media of MDA-MB-435 cells (Western blot); format: cell-based, human; conditions: 10 μM and 20 μM cyclopamine vs DMSO
Method: Stable vector only and non-targeting (scrambled control) transfectants were also generated. Stable transfectants were selected on medium supplemented with 500 μg/ml Geneticin (Invitrogen). The four GLI1-knocked down clones chosen were based on the extent of GLI1 knockdown and were termed KO1, KO2, KO3, and KO4. The expression of OPN was restored in the KO1 cells by transfecting with pcDNA3.1-OPN. A corresponding vector-only transfectant was also generated. Transfectants were selected on medium containing Geneticin (500 μg/ml) and hygromycin (750 μg/ml). Serum-free conditioned medium harvested from approximately 3.0×10^6 cells after 24 hr was assayed for OPN by immunoblotting.
Western Blotting Analysis—Whole cell lysates were collected in Nonidet P-40 buffer (150 mM NaCl, 50 mM Tris, 1% Nonidet P-40). Isolation of cytosolic and nuclear fractions was done as previously reported (15). Total protein (30 μg) was resolved by SDS-PAGE gel and transferred to polyvinylidene difluoride membranes. […] Secreted OPN was assessed by loading an equal quantity of protein from the serum-free conditioned medium. […]

SHH and IHH = SHH and IHH protein expression in A2780 and A2780-CP70 cells (Western blot); format: cell-based, human; conditions: cyclopamine
c-jun and c-fos mRNA = c-jun and c-fos mRNA expression in A2780-CP70 cells (semi-quantitative PCR); format: cell-based, human; conditions: 70 μM cyclopamine
ERCC1, XPD, XRCC1 = assay: ERCC1, XPD and XRCC1 mRNA levels in A2780-CP70 cells (semi-quantitative PCR); format: cell-based, human; conditions: single agent at levels associated with 50% cell killing; 6-72 hr
OPN promoter [1] = assay: OPN promoter luciferase reporter assay in metastatic melanoma cell lines; format: cell-based, human
Description: (§1) Empty pGL3 vector was used as control. […] Readings were normalized to total protein content. Each parameter was studied in triplicate and the experiment repeated at least 3 times. The data are represented as percent luciferase activity, which was derived as a percent of the relative light units in treated groups compared with the untreated groups.

OPN promoter [2] = assay: OPN promoter reporter activity in hFOB cells; format: cell-based, human
Method: as §1
(§2) Empty pGL3 vector was used as control. Different concentrations of SHH ligand were added to the well the next day. Cells were lysed in Reporter Lysis buffer (Promega) 24 hrs post addition of SHH and both β-galactosidase assay and luciferase assays were done following manufacturer's protocol. Readings were normalized to β-galactosidase. Each parameter was studied in triplicate and the experiment repeated at least 3 times.

OPN promoter [3] = assay: OPN promoter reporter activity in MC3T3-E1 pre-osteoblastic cells; format: cell-based, murine
Method: as §1, §2

Compound | OPN in the secretome (OPN) | IHH protein levels (SHH and IHH; 24 hr) | SHH protein levels (SHH and IHH; 24 hr) | IHH protein levels (SHH and IHH; 48 hr and 72 hr) | SHH protein levels (SHH and IHH; 48 hr and 72 hr) | c-fos mRNA levels, peak over 0 hr (c-jun and c-fos mRNA) [fold] | c-jun mRNA levels, increase (c-jun and c-fos mRNA; 6 hr) [fold] | c-jun mRNA levels, increase over 0 hr (c-jun and c-fos mRNA; 24 hr (peak)) [fold] | mRNAs for ERCC1, XPD, or XRCC1 (ERCC1, XPD, XRCC1) | OPN promoter activity (OPN promoter [1]; MCC012A cells, Hedgehog ligand treatment) | OPN promoter activity (OPN promoter [1]; MCC012F cells, Hedgehog ligand treatment) | OPN promoter activity (OPN promoter [1]; MDA-MB-435 cells, increasing concentrations of ligand vs untreated control) | OPN promoter activity (OPN promoter [2]) | OPN promoter activity (OPN promoter [3])
CC1=C2C[C@H]3[C@@H](CC=C4C[C@@H](O)CC[C@@]43C)[C@@H]2CC[C@]12O[C@@H]1C[C@H](C)CN[C@H]1[C@H]2C [cyclopamine] | decreased | reduced | reduced | rebounded | rebounded | 27 | 3 | 13 | no increase | – | – | – | – | –
SHH: recombinant Sonic Hedgehog ligand (R & D Systems) | – | – | – | – | – | – | – | – | – | significant increase | significant increase | significantly (p<0.0001) higher | activates the OPN promoter; also recorded: upregulation in OPN promoter activity | activate OPN promoter; also recorded: upregulation in OPN promoter activity
